The record followed here is PubChem BioAssay AID2581 (Johns Hopkins Ion Channel Center, 2010).

The source made the active and inactive calls.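 Rule for the calls: active = any inhibition of Kir2.1 potassium channel current, measured at -100 mV, at any tested dose; inactive = no inhibition seen at any dose.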

Inward rectifier potassium channel 2 (Mus musculus), sequence (P35561 whole entry, looked up): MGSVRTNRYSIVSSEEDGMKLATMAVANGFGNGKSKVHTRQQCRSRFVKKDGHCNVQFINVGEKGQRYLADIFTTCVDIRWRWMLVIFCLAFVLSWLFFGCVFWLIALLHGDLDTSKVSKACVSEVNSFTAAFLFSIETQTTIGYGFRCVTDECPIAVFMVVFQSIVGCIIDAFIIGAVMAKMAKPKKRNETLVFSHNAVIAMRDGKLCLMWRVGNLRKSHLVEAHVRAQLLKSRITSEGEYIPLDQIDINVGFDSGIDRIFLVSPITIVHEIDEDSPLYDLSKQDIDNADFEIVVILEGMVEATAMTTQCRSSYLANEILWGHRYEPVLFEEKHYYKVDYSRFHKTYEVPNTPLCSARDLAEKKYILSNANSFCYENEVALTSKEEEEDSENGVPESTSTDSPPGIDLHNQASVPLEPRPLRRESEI

One assay has as its target Inward rectifier potassium channel 2 (Mus musculus) (UniProt P35561). The assay can be described thus: Kir2.1 inward rectifier current inhibition – cell-based, automated electrophysiology, IonWorks patch clamp, orthogonal assay for Kir2.1 inhibitor project, dose response (AID 2581). Conditions: Kir2.1 cell line, IonWorks patch clamp current at -100 mV. Background: In patch-clamp work, channel activity is measured electrically.
As for `COc1ccc(CNCc2cccc3ccccc23)cc1OC`, the 50% inhibitory concentration (IC50) – broadly, the midpoint of a concentration-inhibition curve – was 23 µM.

For the compound `COc1ccc(CNCc2ccc(OC)c3ccccc23)cc1OC`, the IC50 is 23.5 µM.

As for `COc1ccc(CNC2CCCc3ccccc32)cc1` (centres undefined), the IC50 is 9.05 µM.

In the case of `COc1ccccc1CNCc1cccc2ccccc12`, the concentration for half-maximal inhibition (IC50) is 18.1 µM.

For the compound `COc1cccc(CNCc2cccc3ccccc23)c1`, the 50% inhibitory concentration (IC50) is 23.6 µM.

As for `COc1ccc(CNCc2cccc3ccccc23)c(OC)c1`, the IC50 was 28.2 µM.

As to `COc1ccc(CNCc2ccc(OC)cc2)cc1`, the 50% inhibitory concentration (IC50) is 13.3 µM.

For `COc1ccc(CNCc2ccc(OC)c(Cl)c2)cc1`, the IC50 is 5.11 µM.

For the compound `COc1ccc(CNCc2ccc(OC)c3ccccc23)cc1`, the concentration for half-maximal inhibition (IC50) is 20.6 µM.

Turning to `COc1ccc(CNCc2cccc(Cl)c2)cc1`, the half-maximal inhibitory concentration (IC50) was 8.99 µM.

Turning to `COc1ccc(CNCc2ccc3ccccc3c2)cc1`, the IC50 is 9.76 µM.

As for `COc1ccc(CNCc2ccc(C)cc2)cc1`, the half-maximal inhibitory concentration (IC50) is 8.01 µM.

Regarding `COc1ccc(CNCc2ccc(C(C)(C)C)cc2)cc1`, the IC50 was 14 µM.

With `COc1ccc(CNCc2ccccc2C)cc1`, the half-maximal inhibitory concentration (IC50) is 16.8 µM.

For `COc1ccc(CNCc2ccc(OC(F)(F)F)cc2)cc1`, the half-maximal inhibitory concentration (IC50) was 24.1 µM.

Take `COc1ccc(CNCc2ccc(Cl)cc2)cc1`: the IC50 was 11.5 µM.

The assay is the same for the next values; noted with them: Kir2.1 cell line, IonWorks patch clamp current at -100 mV; at 30 µM (top of the series).
Turning to `Clc1ccc(CNCc2cccc3ccccc23)c(Cl)c1`, the “channel activity, lower = inhibition” value was “inactive”.

In the case of `COc1cc(CN(C)Cc2cccc3ccccc23)c([N+](=O)[O-])cc1OC`, the “channel activity, lower = inhibition” value was “inactive”.

`COc1cc(Br)c(CN(C)Cc2cccc3ccccc23)cc1OC`: the “channel activity, lower = inhibition” value was “inactive”.

Regarding `COc1ccc(COCc2cccc3ccccc23)cc1`, the “channel activity, lower = inhibition” value is “inactive”.

Regarding `Clc1cccc(CNCc2cccc3ccccc23)c1`, the “channel activity, lower = inhibition” value was “inactive”.

As for `Fc1cccc(CNCc2cccc3ccccc23)c1F`, the “channel activity, lower = inhibition” value was “inactive”.

With `COc1ccc(C(C)NCc2cccc3ccccc23)cc1` (centres undefined), the “channel activity, lower = inhibition” value was “inactive”.

As for `COc1ccc(CNCc2ccccc2)cc1`, the “channel activity, lower = inhibition” value was “inactive”.

Consider `CC(C)(C)c1ccc(CNCc2cccc3ccccc23)cc1`, for which the “channel activity, lower = inhibition” value was “inactive”.

As to `COc1ccc(CNC(=O)c2cccc3ccccc23)cc1`, the “channel activity, lower = inhibition” value was “inactive”.

Take `COc1ccc(CNCc2ccncc2)cc1`: the “channel activity, lower = inhibition” value is “inactive”.

For `COc1ccc(CNCc2ccccn2)cc1`, the “channel activity, lower = inhibition” value was “inactive”.

Take `COc1cc(CN(C)Cc2cccc3ccccc23)ccc1OCc1ccccc1`: the “channel activity, lower = inhibition” value was “inactive”.

On to `Clc1ccc(CNCc2cccc3ccccc23)cc1`, for which the “channel activity, lower = inhibition” value was “inactive”.

As for `FC(F)(F)Oc1ccc(CNCc2cccc3ccccc23)cc1`, the “channel activity, lower = inhibition” value is “inactive”.

Consider `COc1ccc(C(=O)NCc2cccc3ccccc23)cc1`, for which the “channel activity, lower = inhibition” value is “inactive”.

Take `COc1ccc(CNCc2cccnc2)cc1`: the “channel activity, lower = inhibition” value was “inactive”.

On to `COc1ccc(CNC(C)c2cccc3ccccc23)cc1` (centres undefined), for which the “channel activity, lower = inhibition” value is “inactive”.
